In article PMC7321403, “Synthesis and In Vitro Cytotoxicity and Antibacterial Activity of Novel 1,2,3-Triazol-5-yl-Phosphonates” (Molecules, 2020):
Read-outs that look alike come from different tables or passages of the source.

Key:
[1] = system: B. subtilis-GFP; assay: Antibacterial activity on GFP producing Gram-positive bacteria (fluorimetry); format: cell-based, Bacillus subtilis; settings: GFP fluorescence, 1–30 µM tested, mean ± SD
Experimental: (§1) Finally, the biological activity of the synthesized 1,2,3-triazol-5-yl-phosphonates (8, 11–26) was investigated. On the one hand, the antibacterial activity of the compounds was tested on GFP producing Gram-positive (Bacillus subtilis) and Gram-negative (Escherichia coli) bacterial cells. The GFP producing bacteria are an effective tool for screening for antibacterial activity since GFP signal measured via fluorimetry is proportional to the number of bacterial cells. Active compounds would kill bacterial cells, which results in the decrease in GFP fluorescence signal, therefore it is suitable for evaluating the antimicrobial effect of different agents. On the other hand, in vitro cytotoxicity assessments were performed on three different cell lines, such as human lung adenocarcinoma (A549), mouse fibroblast (NIH/3T3) as healthy cell line and human promyelocytic leukemia (HL-60). Table 3 contains the determined IC50 values in antimicrobial and cytotoxicity assays. According to the results, only modest antibacterial activity was detected against the more sensitive Bacillus subtilis strain.
(§2) All reagents were purchased from Sigma-Aldrich (Hungary, Budapest). E. coli-GFP and B. subtilis-GFP bacteria were grown in Lysogeny Broth (Luria-Bertani broth, LB, 10 g tryptone, 5 g yeast extract, 10 g/L NaCl, pH 7.0) medium overnight (ON) at 37 °C in an incubator with continuous shaking. The ON bacterial culture was diluted (E. coli-GFP: 1:10000, B. subtilis-GFP: 1:1000) in LB medium containing 10 µg/mL ampicillin. Two hundred microliters of diluted E. coli suspension per well were transferred to 96-well plates and different agents were added in the appropriate concentration, then incubated in a shaker (600 rpm) for 3 h at 37 °C. Test compounds were dissolved in 3-fold amounts of dimethyl sulfoxide (DMSO). […] For induction of the GFP expression IPTG (0.1 mM final concentration) was added to each well and incubated for 3 h at 37 °C.
(§3) The following incubation samples were centrifuged at 2750 rpm at room temperature (RT) for 5 min and washed twice with 200 µL PBS, with a centrifugation step between the two washes. After a third centrifugation step, the bacterial cells were suspended in 100 µL PBS. The number of bacteria was estimated according to the fluorimetric measurements. The fluorescence of the bacterial cells was measured by the Victor™ 1420 Multilabel Counter (Perkin Elmer, Waltham, MA, USA) at 485/535 nm for 1 sec per well controlled by Wallac 1420 Manager software. Each treatment was repeated in at least 2 wells per plate during the experiments. Percentage fluorescence intensity based on the quantity of E. coli-GFP cells was calculated using untreated control values as 100%. Error was represented by standard deviation (SD).

[2] = in vitro; settings: human, In Vitro Cytotoxicity (IC50, µM) HL-60, 72 h incubation, 1–30 µM tested, mean ± SD
Experimental: (§4) Cells were purchased from the American Type Culture Collection (ATCC, Manassas, VA, USA). Human lung adenocarcinoma A549 cells were maintained in Dulbecco's Modified Eagle Medium (DMEM), while mouse fibroblast NIH/3T3 and human promyelocytic leukemia HL-60 cells were maintained in Roswell Park Memorial Institute 1640 medium (RPMI-1640) containing 10% FCS. Media were supplemented with 2 mM GlutaMAX, 100 U/mL penicillin, and 100 µg/mL streptomycin (Life Technologies, Carlsbad, California, USA). Cell cultures were maintained at 37 °C in a humidified incubator in an atmosphere of 5% CO2 (Sanyo, Japan).
(§5) Cytotoxicity of the synthesized molecules was determined on A549, NIH/3T3 and HL-60 cells using the fluorescent Resazurin assay as described previously [46].
(§6) Briefly, cells (A549 and NIH/3T3: 6000, HL-60: 120.000 cells/well) were seeded into 96-well plates (Corning Life Sciences) in media and incubated overnight. Test compounds were dissolved in three-fold amounts of dimethyl sulfoxide (DMSO). Cells were treated with an increasing concentration of test compounds (1–30 µM). […] Cell viability was determined after 72 h incubation. Resazurin reagent (Sigma-Aldrich) was added at a final concentration of 25 µg/mL. After a 2 h incubation at 37 °C in 5% CO2, fluorescence (530 nm excitation/580 nm emission) was recorded on a multimode microplate reader (Cytofluor4000, PerSeptive Biosytems). Viability was calculated with relation to untreated control cells and blank wells containing media without cells. […] A Student’s t test was performed for individual test compound concentrations with relation to untreated control cell viability values.

[3] = in vitro; settings: human
Experimental: as §4, §5, §6

[4] = system: E. coli-GFP; assay: Antibacterial activity on GFP producing Gram-negative bacteria (fluorimetry); format: cell-based, Escherichia coli; settings: GFP fluorescence, 1–30 µM tested, mean ± SD
Experimental: as §1, §2, §3

[5] = in vitro; settings: mouse
Experimental: as §4, §5, §6

[6] = system: A549 cells (human lung adenocarcinoma)
Experimental: as §4, §5, §6

[7] = system: NIH/3T3 cells (mouse fibroblast)
Experimental: as §4, §5, §6

[8] = system: HL-60 cells (human promyelocytic leukemia); assay: In vitro cytotoxicity, fluorescent Resazurin assay
Experimental: as §4, §5, §6

[9] = In vitro cytotoxicity, fluorescent Resazurin assay; settings: human, HL-60 cells (human promyelocytic leukemia), In Vitro Cytotoxicity (IC50, µM) HL-60, 72 h incubation, 1–30 µM tested, mean ± SD
Experimental: as §4, §5, §6

[10] = system: HL-60 cells (human promyelocytic leukemia)
Experimental: as §4, §5, §6

[11] = read-out: In Vitro Cytotoxicity (IC50, µM) HL-60, 72 h incubation, 1–30 µM tested, mean ± SD
[12] = A549 cells (human lung adenocarcinoma)
[13] = NIH/3T3 cells (mouse fibroblast)

`CCCCCCCCn1nnc(-c2ccccc2)c1P(=O)(OC)OC` [Compound 23, Dimethyl (1-octyl-4-phenyl-1,2,3-triazol-5-yl)phosphonate] showed an IC50 ([1]; Bacillus subtilis) of over 30 µM, an IC50 at 72 h [2] of over 30 µM and an IC50 at 72 h [3] of over 30 µM. The IC50 ([4]; Escherichia coli) was over 30 µM and the IC50 at 72 h [5] was over 30 µM.

In the case of “Dibutyl (1-isooctyl-4-phenyl-1,2,3-triazol-5-yl)phosphonate [Compound 26]”, the IC50 [6] is reported as over 30 µM, the IC50 [7] is reported as over 30 µM and the IC50 [1] is reported as 29.6 ± 1 µM. The IC50 [4] was over 30 µM and the IC50 [8, 11] was 26.7 ± 1 µM.

For `COP(=O)(OC)c1c(-c2ccccc2)nnn1Cc1ccc(C)cc1` [Compound 16, Dimethyl [1-(4-methylbenzyl)-4-phenyl-1,2,3-triazol-5-yl]phosphonate], the IC50 ([1]; Bacillus subtilis) was over 30 µM, the IC50 at 72 h [2] was about 10 µM and the IC50 at 72 h [3] was over 30 µM. It also gave an IC50 ([4]; Escherichia coli) of over 30 µM, an IC50 [8, 11] of 11 ± 1.2 µM and an IC50 at 72 h [5] of 19.8 ± 1.2 µM.

In the case of `CCCCOP(=O)(OCCCC)c1c(-c2ccccc2)nnn1Cc1ccc(F)cc1` [Compound 21, Dibutyl [1-(4-fluorobenzyl)-4-phenyl-1,2,3-triazol-5-yl]phosphonate], the IC50 ([1]; Bacillus subtilis) is reported as 23.2 ± 1.1 µM, the IC50 at 72 h [3, 12] is reported as over 30 µM and the IC50 ([4]; Escherichia coli) is reported as over 30 µM. For the same compound, the IC50 at 72 h [9] was 16.6 ± 1.3 µM and the IC50 at 72 h [5, 13] was over 30 µM.

For `CCOP(=O)(OCC)c1c(-c2ccccc2)nnn1Cc1ccc(C)cc1` [Compound 17, Diethyl [1-(4-methylbenzyl)-4-phenyl-1,2,3-triazol-5-yl]phosphonate], the IC50 ([1]; Bacillus subtilis) was over 30 µM, the IC50 at 72 h [2] was over 30 µM and the IC50 at 72 h [3] was over 30 µM. It also gave an IC50 ([4]; Escherichia coli) of over 30 µM and an IC50 at 72 h [5] of over 30 µM.

`CCCOP(=O)(OCCC)c1c(-c2ccccc2)nnn1Cc1ccccc1` [Compound 13, Dipropyl (1-benzyl-4-phenyl-1,2,3-triazol-5-yl)phosphonate] showed an IC50 ([1]; Bacillus subtilis) of 29.3 ± 1.2 µM, an IC50 at 72 h [3, 12] of over 30 µM and an IC50 ([4]; Escherichia coli) of over 30 µM. The IC50 at 72 h [9] was 12.6 ± 1.7 µM and the IC50 at 72 h [5, 13] was over 30 µM.

In the case of `CC(C)C[C@H](NC(=O)[C@H](Cc1ccccc1)NC(=O)c1cnccn1)B(O)O` [Bortezomib, reference compound], the IC50 ([8]; Homo sapiens, HL-60, 72 h, read-out: IC50 for HL60 (positive control), 72 h incubation, value in nM) is reported as 0.00742 ± 0.0026 µM and the “In Vitro Cytotoxicity (IC50, µM) HL-60” value [10] is reported as 7.42 × 10^−3 2.60 × 10^−3 µM.

Compound `COc1cccc2c1C(=O)c1c(O)c3c(c(O)c1C2=O)C[C@@](O)(C(=O)CO)C[C@@H]3O[C@H]1C[C@H](N)[C@H](O)[C@H](C)O1` [Doxorubicin, reference compound] has an IC50 at 72 h [3] of 0.31 ± 0.24 µM and an IC50 at 72 h [5] of 5.65 ± 0.81 µM.

Compound `CC(C)OP(=O)(OC(C)C)c1c(-c2ccccc2)nnn1Cc1ccccc1` [Compound 14, Diisopropyl (1-benzyl-4-phenyl-1,2,3-triazol-5-yl)phosphonate] has an IC50 ([1]; Bacillus subtilis) of over 30 µM, an IC50 at 72 h [3, 12] of over 30 µM and an IC50 ([4]; Escherichia coli) of over 30 µM. For the same compound, the IC50 at 72 h [9] was over 30 µM and the IC50 at 72 h [5, 13] was over 30 µM.

With `CCOP(=O)(OCC)c1c(-c2ccccc2)nnn1Cc1ccccc1` [Compound 12, Diethyl (1-benzyl-4-phenyl-1,2,3-triazol-5-yl)phosphonate] the IC50 ([1]; Bacillus subtilis) was over 30 µM, the IC50 at 72 h [2] was over 30 µM and the IC50 at 72 h [3] was over 30 µM. It also gave an IC50 ([4]; Escherichia coli) of over 30 µM and an IC50 at 72 h [5] of over 30 µM.

Work on `CNC(C)C1CCC(N)C(OC2C(N)CC(N)C(OC3OCC(C)(O)C(NC)C3O)C2O)O1` (centres unmarked) [Gentamicin, reference compound] yielded an IC50 ([1]; Bacillus subtilis) of 0.49 ± 0.14 µM and an IC50 ([4]; Escherichia coli) of 4.23 ± 0.99 µM.

For `CCCCOP(=O)(OCCCC)c1c(-c2ccccc2)nnn1Cc1ccc(C(F)(F)F)cc1` [Compound 22, Dibutyl [1-(4-trifluoromethyl)-4-phenyl-1,2,3-triazol-5-yl]phosphonate], the IC50 ([1]; Bacillus subtilis) was over 30 µM, the IC50 at 72 h [3, 12] was over 30 µM and the IC50 ([4]; Escherichia coli) was over 30 µM. The IC50 at 72 h [9] was about 10 µM, the IC50 [8, 11] was 9.7 ± 1.1 µM and the IC50 at 72 h [5, 13] was 23.1 ± 1.2 µM.

With `CCCCOP(=O)(OCCCC)c1c(-c2ccccc2)nnn1Cc1ccc(C)cc1` [Compound 18, Dibutyl [1-(4-methylbenzyl)-4-phenyl-1,2,3-triazol-5-yl]phosphonate] the IC50 ([1]; Bacillus subtilis) was 18.2 ± 1 µM, the IC50 at 72 h [3, 12] was over 30 µM and the IC50 ([4]; Escherichia coli) was over 30 µM. The IC50 at 72 h [9] was over 30 µM and the IC50 at 72 h [5, 13] was over 30 µM.

Work on `CCCCOP(=O)(OCCCC)c1c(-c2ccccc2)nnn1Cc1ccccc1` [Compound 8, Dibutyl (1-benzyl-4-phenyl-1,2,3-triazol-5-yl)phosphonate] yielded an IC50 ([1]; Bacillus subtilis) of over 30 µM, an IC50 at 72 h [3, 12] of over 30 µM and an IC50 ([4]; Escherichia coli) of over 30 µM. For the same compound, the IC50 at 72 h [9] was over 30 µM and the IC50 at 72 h [5, 13] was 27.5 ± 1.4 µM.

Compound `CCCCCOP(=O)(OCCCCC)c1c(-c2ccccc2)nnn1Cc1ccccc1` [Compound 15, Dipentyl (1-benzyl-4-phenyl-1,2,3-triazol-5-yl)phosphonate] has an IC50 ([1]; Bacillus subtilis) of 23.9 ± 1 µM, an IC50 at 72 h [3, 12] of over 30 µM and an IC50 ([4]; Escherichia coli) of over 30 µM. For the same compound, the IC50 at 72 h [9] was 15.4 ± 1.2 µM and the IC50 at 72 h [5, 13] was 26.2 ± 1.1 µM.

`C[C@H]1c2cccc(O)c2C(=O)C2=C(O)[C@]3(O)C(=O)C(C(N)=O)=C(O)[C@@H](N(C)C)[C@@H]3[C@@H](O)[C@@H]21` [Doxycycline, reference compound] showed an IC50 ([1]; Bacillus subtilis) of 0.04 ± 0.01 µM and an IC50 ([4]; Escherichia coli) of 0.1 ± 0.02 µM.

In the case of `CCCCOP(=O)(OCCCC)c1c(-c2ccccc2)nnn1Cc1ccccc1F` [Compound 19, Dibutyl [1-(2-fluorobenzyl)-4-phenyl-1,2,3-triazol-5-yl]phosphonate], the IC50 ([1]; Bacillus subtilis) is reported as 19.3 ± 1 µM, the IC50 at 72 h [3, 12] is reported as over 30 µM and the IC50 ([4]; Escherichia coli) is reported as over 30 µM. It also gave an IC50 at 72 h [9] of 11.7 ± 1.2 µM and an IC50 at 72 h [5, 13] of 27.5 ± 1.1 µM.

`CCCCOP(=O)(OCCCC)c1c(-c2ccccc2)nnn1Cc1cccc(F)c1` [Compound 20, Dibutyl [1-(3-fluorobenzyl)-4-phenyl-1,2,3-triazol-5-yl]phosphonate] gave an IC50 ([1]; Bacillus subtilis) of over 30 µM, an IC50 at 72 h [3, 12] of over 30 µM and an IC50 ([4]; Escherichia coli) of over 30 µM. For the same compound, the IC50 at 72 h [9] was 15.4 ± 1.2 µM and the IC50 at 72 h [5, 13] was over 30 µM.

`COP(=O)(OC)c1c(-c2ccccc2)nnn1Cc1ccccc1` [Compound 11, Dimethyl (1-benzyl-4-phenyl-1,2,3-triazol-5-yl)phosphonate] gave an IC50 ([1]; Bacillus subtilis) of over 30 µM, an IC50 at 72 h [2] of over 30 µM and an IC50 at 72 h [3] of over 30 µM. It also gave an IC50 ([4]; Escherichia coli) of over 30 µM and an IC50 at 72 h [5] of over 30 µM.

`CCCCCCCCn1nnc(-c2ccccc2)c1P(=O)(OCCCC)OCCCC` [Compound 25, Dibutyl (1-octyl-4-phenyl-1,2,3-triazol-5-yl)phosphonate] showed an IC50 ([1]; Bacillus subtilis) of over 30 µM, an IC50 at 72 h [3, 12] of over 30 µM and an IC50 ([4]; Escherichia coli) of over 30 µM. The IC50 at 72 h [9] was over 30 µM and the IC50 at 72 h [5, 13] was over 30 µM.

In the case of `CCCCCCCCn1nnc(-c2ccccc2)c1P(=O)(OCC)OCC` [Compound 24, Diethyl (1-octyl-4-phenyl-1,2,3-triazol-5-yl)phosphonate], the IC50 ([1]; Bacillus subtilis) is reported as over 30 µM, the IC50 at 72 h [2] is reported as over 30 µM and the IC50 at 72 h [3] is reported as over 30 µM. It also gave an IC50 ([4]; Escherichia coli) of over 30 µM and an IC50 at 72 h [5] of over 30 µM.
